Data as given in article PMC10591299, “Targeting SHP2 with an Active Site Inhibitor Blocks Signaling and Breast Cancer Cell Phenotypes” (ACS Bio & Med Chem Au, 2023).

Experiments:
PTP1B = target: T1, PTP1B (Homo sapiens, UniProt P18031); test: Cellular thermal shift assay (CETSA), nontarget PTP1B immunoblot; type: binding; conditions: 100 μM CNBCA, cell lysate
T1 construct: compared it with the nontarget PTP1B protein; endogenous in cells
T1 sequence (P18031 1-435): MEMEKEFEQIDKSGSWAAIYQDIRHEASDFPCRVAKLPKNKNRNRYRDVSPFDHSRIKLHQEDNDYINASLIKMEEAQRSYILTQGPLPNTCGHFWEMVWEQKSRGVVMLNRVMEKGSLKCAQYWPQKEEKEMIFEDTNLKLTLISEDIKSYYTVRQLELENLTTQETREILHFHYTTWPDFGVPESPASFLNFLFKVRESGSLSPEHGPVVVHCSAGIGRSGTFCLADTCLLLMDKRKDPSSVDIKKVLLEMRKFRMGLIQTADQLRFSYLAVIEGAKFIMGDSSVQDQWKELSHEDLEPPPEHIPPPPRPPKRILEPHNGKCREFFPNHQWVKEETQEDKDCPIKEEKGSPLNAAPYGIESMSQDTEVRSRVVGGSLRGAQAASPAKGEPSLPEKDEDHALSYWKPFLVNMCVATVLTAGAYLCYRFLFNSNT
Source text: First, we used the cellular thermal shift assay (CETSA) to show whether CNBCA binds to endogenous full-length SHP2 under cellular contexts. The CETSA assay is based on the principle that specific inhibitors bind to a target protein and confer relative stability from heat-induced denaturation and precipitation when compared to a nontarget protein present in the same milieu.[34] Accordingly, we performed CETSA to test the effect of CNBCA on the SHP2 protein stability and compared it with the nontarget PTP1B protein as described in the materials and methods.
After heat treatment, supernatants were analyzed by immunoblotting (IB) for SHP2 and the nontarget phosphatase PTP1B. […] To provide semiquantitative data, band densities of both SHP2 and PTP1B were measured and presented as bar graph. […] On the other hand, the nontarget protein PTP1B was reduced to approximately 50% at 49 °C, to 25% at 55 °C, and to less than 10% at 58 °C (Figure 3B and D).
For the CETSA study, total protein extracts (TPE) prepared from two breast cancer cells, the triple-negative MDA-MB468 and the HER2-positive JIMT-1 cells, were used. Briefly, TPE from the two cell lines were cleared by centrifugation, mixed with CNBCA at 100 μM concentration (the maximum amount used in the IC50 studies), and incubated for 10 min at room temperature to allow binding. The mixture was then divided into 100 μL aliquots, treated with heat for 10 min at different temperatures, ranging from 37 to 64 °C that differ by 3 °C intervals, cooled on ice for 10 min, centrifuged at 20,000g for 20 min to remove precipitated proteins, and the supernatants analyzed by immunoblotting (IB) for SHP2 and the nontarget PTP, PTP1B. Aliquots that were mixed with CNBCA, but not treated with heat were used as positive controls for comparison.

SHP2 = target: T2, SHP2 (Homo sapiens, UniProt Q06124); test: PTPase assay, GST-fusion PTP domain of SHP2, DiFMUP substrate; type: biochemical
T2 construct: the GST fusion of the PTP domains of SHP2, SHP1, and PTP1B were produced and purified as reported by us previously; GST; made in house
T2 sequence (Q06124 247-517 limits assumed): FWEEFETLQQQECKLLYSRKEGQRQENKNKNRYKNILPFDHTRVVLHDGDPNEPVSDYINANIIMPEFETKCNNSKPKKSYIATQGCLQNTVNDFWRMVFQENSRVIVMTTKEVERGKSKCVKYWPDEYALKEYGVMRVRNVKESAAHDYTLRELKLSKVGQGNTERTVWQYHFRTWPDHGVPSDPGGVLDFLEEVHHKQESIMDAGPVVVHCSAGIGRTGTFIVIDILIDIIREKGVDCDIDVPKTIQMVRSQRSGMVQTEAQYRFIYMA
Description: After completion of synthesis, both CNBCA and CNBBA were purified on silica gel, and purity was determined by HPLC. The purified compounds were then tested for their effect on the SHP2 enzyme activity and on the activity of the selected control PTPs (SHP1 and PTP1B) by the phosphotyrosyl phosphatase (PTPase) assay as described previously.[30],[31] First, the GST fusion of the PTP domains of SHP2, SHP1, and PTP1B were produced and purified as reported by us previously.[32] The reactions were performed in a buffer containing 10 mM Tris-HCl (pH 7.2), 100 mM NaCl, 1 mM EDTA, 1 mM dithiothreitol (DTT), and 0.01% Tween-20. Briefly, CNBCA or CNBBA was added first in a serial dilution ranging from 100 μM to 97 nM followed by the enzymes (SHP2, SHP1, or PTP1B) to a final concentration of 1 nM. After 5 min of incubation at room temperature, the reactions were started by adding the artificial substrate DiFMUP (6,8-difluoro-4-methylumbelliferyl phosphate) to a final concentration of 20 μM for SHP2, 35 μM for SHP1, and 10 μM for PTP1B in a reaction volume of 100 μL; variations in DiFMUP concentrations reflect the reported Km values for the respective PTPs.[33] The complete mixture was incubated at 37 °C for 20 min, and fluorescence intensity was measured by the Synergy 4 plate reader at the excitation and emission wavelengths of 360 and 460 nm, respectively. The half inhibitory concentration (IC50) value of each compound was calculated and plotted using Graphpad Prism software.
We used the PTPase assay described previously[30],[31] to evaluate the effect of the newly synthesized compounds on the enzymatic activity of SHP2, SHP1, and PTP1B. The PTP domains of the indicated proteins were prepared as reported by us recently.[32] The artificial PTP substrate DiFMUP (6,8-Difluoro-4-Methylumbelliferyl Phosphate) was purchased from Invitrogen. The purified proteins were dialyzed into a phosphatase buffer containing 10 mM Tris-HCl ([…]), 100 mM NaCl, 1.0 mM EDTA, 1.0 mM dithiothreitol (DTT), and 0.01% Tween-20. Briefly, the PTPase reactions were performed in 100 μL volume containing 1 nM enzyme, inhibitors in serial dilutions (12 nM to 100 μM), and DiFMUP to a final concentration of 20 μM for SHP2, 35 μM for SHP1, and 10 μM for PTP1B. Differences in DiFMUP concentrations reflect the reported Km values for each PTP.[37] The mixtures were incubated at 37 °C for 20 min and transferred to 96 well plates, and the fluorescence intensity was measured by a Synergy 4 plate reader at the excitation and emission wavelengths of 360 and 460 nm, respectively. Graphpad Prism software was used to calculate the IC50 values.

PTP1B remaining in solution (band density) (PTP1B; heat 49 °C 10 min): approximately 50% | PTP1B remaining in solution (band density) (PTP1B; heat 55 °C 10 min): 25% | PTP1B remaining in solution (band density) (PTP1B; heat 58 °C 10 min): less than 10% | IC50 (SHP2; PTP domain, 1 nM enzyme, 20 μM DiFMUP, 37 °C 20 min): 870 nM | selectivity ratio SHP2 (reference) (SHP2; SHP2 IC50 as reference): 1.0 | fold difference (SHP2; SHP2 IC50 relative to CNBCA): 1.0 fold
Compound: CCCCCCCCCOc1ccc(-c2ccc(C(=O)O)cc2)cc1CCCC(=O)O [CNBCA, 3′-(3-carboxypropyl)-4′-(nonyloxy)-[1,1′-biphenyl]-4-carboxylic acid]
